# Results taken from EPA's ToxValDB 9.5 (doi:10.2903/j.efsa.2010.1897).
# Values joined by “and” are separate entries in the source; they are usually repeats but may differ in a detail not shown here. Equal values may be shown once.
# Experiments:
# Cyprinodon variegatus = settings: acute; duration: 96 hours; mortality
# Folsomia candida = settings: chronic/long-term; duration: 28 days; reproduction
# Coturnix japonica = settings: acute; oral; mortality
# Anas platyrhynchos = settings: for LC50: short-term, feed
# Tagia sp. = settings: acute; duration: 14 days; mortality
# Daphnia magna = settings: chronic/long-term; duration: 21 days
# Apis mellifera = settings: acute; duration: 48 hours; oral; unspecified; mortality
# Colinus virginianus = settings: for LC50: diet
# Typhlodromus pyri = test: LR50; higher = less toxic; settings: not reported; mortality
smiles,measurement,setting,value
CC(C1CC1)C(O)(Cn1cncn1)c1ccc(Cl)cc1 (stereo not drawn) [Cyproconazole],LC50,Cyprinodon variegatus,21 µg/mL
same,LD50,"Mus musculus; acute, oral, mortality",200 mg/kg-day
same,NOAEL,"Mus musculus; chronic, duration: 18 months, body weight",1.84 mg/kg-day
same,LC50,"Oncorhynchus mykiss; acute, duration: 96 hours, mortality",19 µg/mL
same,NOEC,"Oncorhynchus mykiss; chronic/long-term, duration: 89 days, growth",0.16 mg/L
same,NOEC,Folsomia candida,55.8 mg/kg
same,LD50,Coturnix japonica,130 mg/kg-day
same,LD50,"Anas platyrhynchos; acute, oral, unspecified, mortality",> 2000 mg/kg-day
same,NOEC,Anas platyrhynchos; reproductive,1.4 mg/kg-day and 2.4 mg/kg-day
same,LC50,"Anas platyrhynchos; oral, mortality",151 mg/kg-day
same,LC50,Tagia sp.,> 335 mg/kg
same,NOEC,Daphnia magna,0.023 mg/L
same,LD50,Apis mellifera,> 100 µg/piece
same,LC50,"Colinus virginianus; acute, oral, mortality",478 mg/kg-day and 585 mg/kg-day
same,LD50,"Colinus virginianus; acute, oral, mortality",94 mg/kg-day and 183 mg/kg-day
same,NOEC,Colinus virginianus; reproduction developmental,6.6 mg/kg-day
same,NOAEL,"Rattus norvegicus; chronic, duration: 2 years, M/F, body weight",2.22 mg/kg-day
same,NOAEL,"Rattus norvegicus; reproduction developmental, F, reproduction",1.7 mg/kg-day
same,NOAEL,"Rattus norvegicus; reproduction developmental, M, organ weight",1.4 mg/kg-day
same,LR50,Typhlodromus pyri,29.4 g/ha
"NC(Cc1ncn[nH]1)C(=O)O (stereo not drawn) [1,2,4-Triazole-3-alanine]",LC50,"Anas platyrhynchos; oral, mortality",> 1340 mg/kg-day
same,LC50,"Colinus virginianus; acute, oral, mortality",> 1400 mg/kg-day
same,NOAEL,"Rattus norvegicus; developmental, development",100 mg/kg-day
